Measurements as given in ChEMBL document CHEMBL4354805, “Discovery of MK-8719, a Potent O-GlcNAcase Inhibitor as a Potential Treatment for Tauopathies” (J Med Chem, 2019).
One block for each compound: values may come before it.

What was measured:
[1] = target: T1, Beta-hexosaminidase subunit beta (Homo sapiens, UniProt P07686); assay: Inhibition of human beta hexosaminidase assessed as inhibitory constant using 4-methylumbelliferyl N-acetyl-beta-D-glucosaminide dihydrate as substrate measured every 60 sec for 45 mins by fluorescence spectrophotometry
T1 sequence (P07686 whole entry): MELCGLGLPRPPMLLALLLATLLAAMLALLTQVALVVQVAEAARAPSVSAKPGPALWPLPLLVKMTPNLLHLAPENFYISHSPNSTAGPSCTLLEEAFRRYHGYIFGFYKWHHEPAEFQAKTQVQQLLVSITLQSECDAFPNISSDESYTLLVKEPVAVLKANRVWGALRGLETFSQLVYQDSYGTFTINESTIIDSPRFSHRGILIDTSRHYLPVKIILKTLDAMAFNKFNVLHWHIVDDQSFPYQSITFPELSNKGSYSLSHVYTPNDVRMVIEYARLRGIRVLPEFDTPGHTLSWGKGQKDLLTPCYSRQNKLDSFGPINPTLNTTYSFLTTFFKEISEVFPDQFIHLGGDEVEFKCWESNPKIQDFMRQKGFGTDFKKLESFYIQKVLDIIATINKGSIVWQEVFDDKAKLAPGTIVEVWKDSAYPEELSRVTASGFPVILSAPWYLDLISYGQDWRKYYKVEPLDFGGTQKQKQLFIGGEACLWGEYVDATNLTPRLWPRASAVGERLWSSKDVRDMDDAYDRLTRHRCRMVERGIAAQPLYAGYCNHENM

[2] = AUCN in Wistar Han rat at 3 mg/kg, po; format: ADME, organism-based; settings: in vivo
[3] = Clearance in Wistar Han rat at 2 mg/kg, iv; format: ADME, organism-based; settings: in vivo
[4] = Half life in Wistar Han rat at 2 mg/kg, iv; format: ADME, organism-based; settings: in vivo
[5] = Volume of distribution at steady state in Wistar Han rat at 2 mg/kg, iv or 3 mg/kg, po; format: ADME, organism-based; settings: in vivo, read-out: Vdss
[6] = Oral bioavailability in Wistar Han rat at 3 mg/kg; format: ADME, organism-based; settings: in vivo
Protein O-GlcNAcase [7] = target: T2, Protein O-GlcNAcase (Homo sapiens, UniProt O60502); assay: Inhibition of recombinant human OGA
T2 sequence (O60502 whole entry): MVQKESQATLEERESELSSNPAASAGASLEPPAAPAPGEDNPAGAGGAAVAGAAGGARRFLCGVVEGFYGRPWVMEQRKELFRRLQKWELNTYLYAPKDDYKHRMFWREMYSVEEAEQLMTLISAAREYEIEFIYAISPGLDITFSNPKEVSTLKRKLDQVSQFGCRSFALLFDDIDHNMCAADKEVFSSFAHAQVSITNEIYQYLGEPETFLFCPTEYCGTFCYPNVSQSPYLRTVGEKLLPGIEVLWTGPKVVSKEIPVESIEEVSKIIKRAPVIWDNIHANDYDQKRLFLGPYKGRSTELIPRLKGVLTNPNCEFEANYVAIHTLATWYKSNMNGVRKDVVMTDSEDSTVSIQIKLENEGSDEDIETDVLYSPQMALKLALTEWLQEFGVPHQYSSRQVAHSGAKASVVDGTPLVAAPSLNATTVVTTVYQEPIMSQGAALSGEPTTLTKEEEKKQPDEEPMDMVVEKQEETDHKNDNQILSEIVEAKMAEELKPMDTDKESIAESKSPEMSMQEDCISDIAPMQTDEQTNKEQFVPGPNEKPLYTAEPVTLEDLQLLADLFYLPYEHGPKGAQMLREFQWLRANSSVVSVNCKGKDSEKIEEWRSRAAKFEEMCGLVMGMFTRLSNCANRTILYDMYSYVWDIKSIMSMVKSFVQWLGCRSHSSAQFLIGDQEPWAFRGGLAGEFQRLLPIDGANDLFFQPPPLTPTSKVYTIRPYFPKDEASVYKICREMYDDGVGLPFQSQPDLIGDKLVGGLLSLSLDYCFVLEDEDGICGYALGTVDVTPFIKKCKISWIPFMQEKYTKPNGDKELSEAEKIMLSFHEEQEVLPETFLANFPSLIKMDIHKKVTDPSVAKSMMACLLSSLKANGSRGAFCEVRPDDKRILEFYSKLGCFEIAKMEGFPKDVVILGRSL

Protein O-GlcNAcase [8] = target: T3, Protein O-GlcNAcase (Rattus norvegicus, UniProt Q8VIJ5); assay: Inhibition of OGA in rat PC12 cells assessed as OGlcNAcylated protein level incubated for 24 hrs by ELISA; format: cell-based
T3 sequence (Q8VIJ5 whole entry): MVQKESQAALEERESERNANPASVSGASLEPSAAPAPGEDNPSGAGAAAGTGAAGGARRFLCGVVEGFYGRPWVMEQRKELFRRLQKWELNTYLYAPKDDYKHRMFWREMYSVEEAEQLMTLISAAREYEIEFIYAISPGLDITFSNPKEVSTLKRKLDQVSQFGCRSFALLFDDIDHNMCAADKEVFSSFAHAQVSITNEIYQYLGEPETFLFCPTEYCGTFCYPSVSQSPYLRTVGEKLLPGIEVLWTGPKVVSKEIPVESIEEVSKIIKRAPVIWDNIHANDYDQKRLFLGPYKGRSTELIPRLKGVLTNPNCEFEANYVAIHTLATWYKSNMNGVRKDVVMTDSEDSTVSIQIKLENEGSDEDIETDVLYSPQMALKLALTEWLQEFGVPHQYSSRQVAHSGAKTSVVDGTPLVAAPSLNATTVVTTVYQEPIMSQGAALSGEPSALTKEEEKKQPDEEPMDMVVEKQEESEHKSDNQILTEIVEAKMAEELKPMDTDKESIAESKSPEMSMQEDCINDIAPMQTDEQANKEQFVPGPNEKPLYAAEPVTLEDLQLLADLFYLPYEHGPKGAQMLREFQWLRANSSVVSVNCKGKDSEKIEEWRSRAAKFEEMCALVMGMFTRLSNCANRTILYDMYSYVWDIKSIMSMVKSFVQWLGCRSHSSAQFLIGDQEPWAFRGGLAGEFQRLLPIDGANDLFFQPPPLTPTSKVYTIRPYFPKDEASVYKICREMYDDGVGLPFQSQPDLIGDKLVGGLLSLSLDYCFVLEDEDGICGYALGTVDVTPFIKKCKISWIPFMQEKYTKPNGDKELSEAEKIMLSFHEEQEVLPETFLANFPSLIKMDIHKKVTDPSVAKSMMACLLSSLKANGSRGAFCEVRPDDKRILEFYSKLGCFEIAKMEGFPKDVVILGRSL

[9] = target: Voltage-gated inwardly rectifying potassium channel KCNH2 (Homo sapiens, UniProt Q12809); assay: Displacement of MK-0499 from human ERG
Voltage-gated inwardly rectifying potassium channel KCNH2, sequence (Q12809 whole entry): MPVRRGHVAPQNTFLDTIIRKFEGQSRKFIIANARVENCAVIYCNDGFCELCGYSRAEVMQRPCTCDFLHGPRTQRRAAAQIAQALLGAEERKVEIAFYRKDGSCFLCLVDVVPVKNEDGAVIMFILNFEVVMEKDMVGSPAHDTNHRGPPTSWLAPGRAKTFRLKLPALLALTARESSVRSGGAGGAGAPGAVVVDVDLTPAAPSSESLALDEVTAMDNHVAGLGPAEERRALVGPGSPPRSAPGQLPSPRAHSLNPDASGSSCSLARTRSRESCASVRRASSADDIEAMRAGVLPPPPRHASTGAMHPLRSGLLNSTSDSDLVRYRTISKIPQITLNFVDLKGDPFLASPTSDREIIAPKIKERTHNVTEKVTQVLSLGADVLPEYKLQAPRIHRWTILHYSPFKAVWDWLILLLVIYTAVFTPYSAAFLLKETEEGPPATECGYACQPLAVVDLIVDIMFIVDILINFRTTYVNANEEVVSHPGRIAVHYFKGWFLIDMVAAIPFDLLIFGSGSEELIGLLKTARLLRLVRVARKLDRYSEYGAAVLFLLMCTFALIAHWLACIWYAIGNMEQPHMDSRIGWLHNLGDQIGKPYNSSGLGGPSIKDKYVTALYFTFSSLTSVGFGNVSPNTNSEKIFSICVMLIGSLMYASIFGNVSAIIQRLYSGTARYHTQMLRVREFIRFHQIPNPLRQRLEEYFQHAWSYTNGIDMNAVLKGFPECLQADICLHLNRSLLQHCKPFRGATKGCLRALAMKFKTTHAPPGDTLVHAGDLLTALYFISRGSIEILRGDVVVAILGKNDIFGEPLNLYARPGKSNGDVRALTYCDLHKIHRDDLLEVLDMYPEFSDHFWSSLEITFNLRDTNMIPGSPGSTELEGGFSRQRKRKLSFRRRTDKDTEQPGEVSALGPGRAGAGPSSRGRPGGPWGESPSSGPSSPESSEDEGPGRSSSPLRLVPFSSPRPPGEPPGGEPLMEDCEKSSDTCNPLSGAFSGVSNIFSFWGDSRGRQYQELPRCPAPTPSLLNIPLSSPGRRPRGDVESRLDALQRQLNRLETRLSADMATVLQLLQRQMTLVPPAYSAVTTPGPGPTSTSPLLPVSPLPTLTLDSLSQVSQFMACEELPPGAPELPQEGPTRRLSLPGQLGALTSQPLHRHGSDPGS

[10] = target: Sodium channel protein type 5 subunit alpha (Homo sapiens, UniProt Q14524); assay: Inhibition of Nav1.5 (unknown origin)
Sodium channel protein type 5 subunit alpha, sequence (Q14524 whole entry): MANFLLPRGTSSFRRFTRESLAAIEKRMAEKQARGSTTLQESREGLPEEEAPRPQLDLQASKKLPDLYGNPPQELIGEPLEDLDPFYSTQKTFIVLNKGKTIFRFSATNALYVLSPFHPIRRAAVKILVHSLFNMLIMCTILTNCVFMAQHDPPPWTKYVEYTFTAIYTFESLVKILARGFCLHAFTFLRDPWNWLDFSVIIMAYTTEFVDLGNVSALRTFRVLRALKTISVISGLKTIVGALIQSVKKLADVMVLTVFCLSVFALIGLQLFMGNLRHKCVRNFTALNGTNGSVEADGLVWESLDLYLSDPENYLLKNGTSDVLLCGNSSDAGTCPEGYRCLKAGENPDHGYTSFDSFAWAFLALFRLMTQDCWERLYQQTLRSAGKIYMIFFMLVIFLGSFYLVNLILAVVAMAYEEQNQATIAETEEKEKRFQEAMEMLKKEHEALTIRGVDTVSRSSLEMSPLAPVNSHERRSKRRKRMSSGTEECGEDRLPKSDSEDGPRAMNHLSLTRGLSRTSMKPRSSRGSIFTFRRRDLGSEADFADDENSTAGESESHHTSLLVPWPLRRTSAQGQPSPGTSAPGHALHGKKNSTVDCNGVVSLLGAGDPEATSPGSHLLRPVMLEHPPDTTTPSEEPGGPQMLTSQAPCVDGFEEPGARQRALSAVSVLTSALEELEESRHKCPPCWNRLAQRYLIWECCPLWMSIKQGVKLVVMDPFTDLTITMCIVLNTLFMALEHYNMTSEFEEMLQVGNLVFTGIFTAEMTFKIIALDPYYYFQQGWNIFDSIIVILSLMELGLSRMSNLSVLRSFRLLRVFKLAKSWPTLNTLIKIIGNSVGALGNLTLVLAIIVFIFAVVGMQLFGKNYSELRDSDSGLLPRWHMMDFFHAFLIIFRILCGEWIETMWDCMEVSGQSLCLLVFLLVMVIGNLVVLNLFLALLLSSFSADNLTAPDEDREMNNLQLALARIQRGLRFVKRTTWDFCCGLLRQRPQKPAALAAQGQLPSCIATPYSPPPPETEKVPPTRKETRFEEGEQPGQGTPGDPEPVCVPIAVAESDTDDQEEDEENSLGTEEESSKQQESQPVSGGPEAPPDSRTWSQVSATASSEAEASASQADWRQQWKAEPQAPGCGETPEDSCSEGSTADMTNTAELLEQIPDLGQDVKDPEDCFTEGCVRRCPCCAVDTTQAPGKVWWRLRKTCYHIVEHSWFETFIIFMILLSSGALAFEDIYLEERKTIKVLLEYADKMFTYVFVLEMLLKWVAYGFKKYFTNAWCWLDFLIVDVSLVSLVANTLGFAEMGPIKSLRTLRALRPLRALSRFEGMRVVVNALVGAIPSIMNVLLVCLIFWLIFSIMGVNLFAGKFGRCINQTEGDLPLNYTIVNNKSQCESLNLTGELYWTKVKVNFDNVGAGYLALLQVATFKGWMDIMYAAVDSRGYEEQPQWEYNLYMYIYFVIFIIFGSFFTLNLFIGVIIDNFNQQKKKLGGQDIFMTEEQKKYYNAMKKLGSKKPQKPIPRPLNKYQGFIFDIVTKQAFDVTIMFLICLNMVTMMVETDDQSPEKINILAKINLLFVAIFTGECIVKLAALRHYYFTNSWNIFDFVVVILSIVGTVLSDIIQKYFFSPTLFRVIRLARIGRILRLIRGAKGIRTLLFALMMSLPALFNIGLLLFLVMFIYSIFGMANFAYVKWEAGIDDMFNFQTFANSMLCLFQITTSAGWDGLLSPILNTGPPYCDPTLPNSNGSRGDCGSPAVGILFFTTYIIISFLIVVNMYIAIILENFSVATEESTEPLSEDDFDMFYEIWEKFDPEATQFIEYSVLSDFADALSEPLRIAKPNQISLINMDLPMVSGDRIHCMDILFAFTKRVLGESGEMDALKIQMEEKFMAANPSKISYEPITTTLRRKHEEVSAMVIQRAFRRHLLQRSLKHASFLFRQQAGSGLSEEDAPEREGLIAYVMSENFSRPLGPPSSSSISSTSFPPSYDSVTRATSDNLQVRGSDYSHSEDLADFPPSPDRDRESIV

[11] = target: Voltage-dependent L-type calcium channel subunit alpha-1C (Homo sapiens, UniProt Q13936); assay: Inhibition of Cav1.2 (unknown origin)
Cytochrome P450 3A4 = Cytochrome P450 3A4 (Homo sapiens, UniProt P08684); assay: Inhibition of CYP3A4 (unknown origin); format: ADME
Cytochrome P450 3A4, sequence (P08684 whole entry): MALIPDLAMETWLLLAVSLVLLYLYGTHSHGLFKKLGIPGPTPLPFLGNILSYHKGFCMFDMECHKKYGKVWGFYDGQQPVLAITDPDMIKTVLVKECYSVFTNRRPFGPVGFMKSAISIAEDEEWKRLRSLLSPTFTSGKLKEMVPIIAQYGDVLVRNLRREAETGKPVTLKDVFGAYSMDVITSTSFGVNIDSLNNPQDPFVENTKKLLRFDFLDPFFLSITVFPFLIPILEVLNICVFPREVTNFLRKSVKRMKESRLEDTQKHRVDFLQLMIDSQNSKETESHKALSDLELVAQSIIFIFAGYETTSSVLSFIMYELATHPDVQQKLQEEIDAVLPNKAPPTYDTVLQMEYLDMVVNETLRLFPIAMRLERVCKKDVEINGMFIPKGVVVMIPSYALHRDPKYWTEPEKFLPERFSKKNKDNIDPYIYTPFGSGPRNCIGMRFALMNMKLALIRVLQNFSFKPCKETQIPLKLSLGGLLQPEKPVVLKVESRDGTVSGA

Cytochrome P450 2D6 = Cytochrome P450 2D6 (Homo sapiens, UniProt P10635); assay: Inhibition of CYP2D6 (unknown origin); format: ADME
Cytochrome P450 2D6, sequence (P10635 whole entry): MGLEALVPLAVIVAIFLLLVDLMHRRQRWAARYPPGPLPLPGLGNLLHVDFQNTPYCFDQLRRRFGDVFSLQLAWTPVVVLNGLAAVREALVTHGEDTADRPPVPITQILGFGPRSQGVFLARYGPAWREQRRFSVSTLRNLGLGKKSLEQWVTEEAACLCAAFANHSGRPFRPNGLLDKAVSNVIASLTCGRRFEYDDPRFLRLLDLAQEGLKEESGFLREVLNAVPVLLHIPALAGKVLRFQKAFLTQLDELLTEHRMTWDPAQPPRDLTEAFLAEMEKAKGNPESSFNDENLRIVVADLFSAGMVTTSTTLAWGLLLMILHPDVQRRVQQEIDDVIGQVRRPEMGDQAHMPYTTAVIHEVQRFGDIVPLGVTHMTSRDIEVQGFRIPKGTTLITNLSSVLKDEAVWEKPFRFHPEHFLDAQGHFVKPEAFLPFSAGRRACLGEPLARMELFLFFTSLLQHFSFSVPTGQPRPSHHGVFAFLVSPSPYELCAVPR

Cytochrome P450 2C9 = Cytochrome P450 2C9 (Homo sapiens, UniProt P11712); assay: Inhibition of CYP2C9 (unknown origin); format: ADME
Cytochrome P450 2C9, sequence (P11712 whole entry): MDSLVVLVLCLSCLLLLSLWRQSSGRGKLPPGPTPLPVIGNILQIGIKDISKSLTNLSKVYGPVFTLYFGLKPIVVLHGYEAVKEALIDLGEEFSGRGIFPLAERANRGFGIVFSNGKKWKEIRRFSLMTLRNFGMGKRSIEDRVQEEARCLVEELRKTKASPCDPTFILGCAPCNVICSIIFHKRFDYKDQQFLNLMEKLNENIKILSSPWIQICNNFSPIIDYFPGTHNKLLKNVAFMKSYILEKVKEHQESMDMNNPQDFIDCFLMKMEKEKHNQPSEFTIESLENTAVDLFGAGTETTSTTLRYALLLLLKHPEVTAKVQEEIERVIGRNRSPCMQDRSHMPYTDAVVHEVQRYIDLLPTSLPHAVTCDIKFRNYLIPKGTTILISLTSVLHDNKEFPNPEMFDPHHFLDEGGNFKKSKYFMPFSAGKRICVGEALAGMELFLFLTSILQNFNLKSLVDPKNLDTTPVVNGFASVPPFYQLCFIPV

[12] = target: T4, Nuclear receptor subfamily 1 group I member 2 (Homo sapiens, UniProt O75469); assay: Activation of PXR (unknown origin) assessed as CYP3A4 induction
T4 sequence (O75469 whole entry): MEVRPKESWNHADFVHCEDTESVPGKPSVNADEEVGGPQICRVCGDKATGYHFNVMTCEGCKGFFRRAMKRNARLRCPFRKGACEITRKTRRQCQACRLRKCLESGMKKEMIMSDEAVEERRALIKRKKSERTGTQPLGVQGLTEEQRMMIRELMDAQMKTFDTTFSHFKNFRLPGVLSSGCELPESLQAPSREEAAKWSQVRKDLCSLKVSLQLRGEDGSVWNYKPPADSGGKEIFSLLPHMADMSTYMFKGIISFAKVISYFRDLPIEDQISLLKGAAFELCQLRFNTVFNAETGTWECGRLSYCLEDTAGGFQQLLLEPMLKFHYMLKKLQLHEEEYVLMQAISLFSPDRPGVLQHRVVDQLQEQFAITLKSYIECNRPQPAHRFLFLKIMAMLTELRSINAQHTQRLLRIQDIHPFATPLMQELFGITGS

MDR1 = assay: Apparent permeability in pig LLC-PK1 cells transfected with MDR1; format: ADME, cell-based, Sus scrofa

Structure (SMILES): CN(C)C1=N[C@@H]2C[C@H](O)[C@@H](CO)O[C@@H]2S1
Ki [1]: > 10 µM | AUC/dose [2]: 2.26 µM·kg·h/mg | clearance [3]: 25.7 mL/min/kg | half-life [4]: 1.95 h | Vd [5]: 2.49 L/kg | bioavailability [6]: 80.1%

Structure (SMILES): OC[C@H]1O[C@@H]2SC(N3CC(F)C3)=N[C@@H]2[C@@H](O)[C@@H]1O
Ki (Protein O-GlcNAcase [7]): > 3 µM

Structure (SMILES): OC[C@H]1O[C@@H]2SC(N3CCC(F)CC3)=N[C@@H]2[C@@H](O)[C@@H]1O
Ki (Protein O-GlcNAcase [7]): > 3 µM | Ki [1]: > 10 µM

Structure (SMILES): C=CCNC1=N[C@@H]2[C@@H](O)[C@H](O)[C@@H](C(F)F)O[C@@H]2S1
Papp (MDR1): 12 ×10⁻⁶ cm/s | Ki (Protein O-GlcNAcase [7]): 0.074 µM | Ki [1]: > 10 µM

Structure (SMILES): OC[C@H]1O[C@@H]2SC(N3CC[C@@H](F)C3)=N[C@@H]2[C@@H](O)[C@@H]1O
Ki [1]: > 10 µM

Structure (SMILES): CCNC1=N[C@@H]2[C@@H](O)[C@H](OC)[C@@H](CO)O[C@@H]2S1
Ki (Protein O-GlcNAcase [7]): > 3 µM | IC50 [9]: > 30 µM | IC50 [10]: > 30 µM | IC50 [11]: > 30 µM | IC50 (Cytochrome P450 3A4): > 50 µM | IC50 (Cytochrome P450 2D6): > 50 µM | IC50 (Cytochrome P450 2C9): > 50 µM | EC50 [12]: > 30 µM

Structure (SMILES): CCNC1=N[C@@H]2[C@@H](O)[C@H](O)[C@@H](COC)O[C@@H]2S1
Ki (Protein O-GlcNAcase [7]): 0.19 µM | IC50 [9]: > 30 µM | IC50 [10]: > 30 µM | IC50 [11]: > 30 µM | IC50 (Cytochrome P450 3A4): > 50 µM | IC50 (Cytochrome P450 2D6): > 50 µM | IC50 (Cytochrome P450 2C9): > 50 µM | EC50 [12]: > 30 µM

Structure (SMILES): NC1=N[C@@H]2[C@@H](O)[C@H](O)[C@@H](CF)O[C@@H]2S1
Ki (Protein O-GlcNAcase [7]): 1.2 µM

Structure (SMILES): C=CCNC1=N[C@@H]2[C@@H](O)[C@H](O)[C@@H](CF)O[C@@H]2S1
Ki (Protein O-GlcNAcase [7]): 0.18 µM | Ki [1]: > 10 µM

Continued by falling Ki (Protein O-GlcNAcase [7]), values first:

Ki (Protein O-GlcNAcase [7]): 0.069 µM | IC50 (Cytochrome P450 3A4): > 50 µM | IC50 (Cytochrome P450 2D6): > 50 µM | IC50 (Cytochrome P450 2C9): > 50 µM | EC50 [12]: > 30 µM
Structure (SMILES): CCNC1=N[C@@H]2[C@@H](O)[C@H](O)[C@@H](C)O[C@@H]2S1
IC50 [9]: > 30 µM | IC50 [10]: > 30 µM | IC50 [11]: > 30 µM

Papp (MDR1): 22 ×10⁻⁶ cm/s | Ki (Protein O-GlcNAcase [7]): 0.058 µM | Ki [1]: > 10 µM
Structure (SMILES): CNC1=N[C@@H]2[C@@H](F)[C@H](O)[C@@H](C(F)F)O[C@@H]2S1

Papp (MDR1): 2.5 ×10⁻⁶ cm/s | Ki (Protein O-GlcNAcase [7]): 0.05 µM | EC50 (Protein O-GlcNAcase [8]): 0.224 µM | Ki [1]: > 10 µM
Structure (SMILES): CCCNC1=N[C@@H]2C[C@H](O)[C@@H](CO)O[C@@H]2S1

Papp (MDR1): 18 ×10⁻⁶ cm/s | Ki (Protein O-GlcNAcase [7]): 0.026 µM | Ki [1]: > 10 µM
Structure (SMILES): O[C@H]1[C@H](O)[C@@H](C(F)F)O[C@@H]2SC(N3CCC3)=N[C@H]12

Ki (Protein O-GlcNAcase [7]): 0.003 µM | EC50 (Protein O-GlcNAcase [8]): 0.307 µM | Ki [1]: 8.1 µM
Structure (SMILES): CNC1=N[C@@H]2[C@@H](F)[C@H](O)[C@@H](CO)O[C@@H]2S1
